Literature values as cited in patent publication US5032586A, “7-keto or hydroxy 3,5-diene steroids as inhibitors of steroid 5-alpha reductase” (SmithKline Beecham Corporation, priority 1989, dated 1991).

System: 5-α-Reductase
Conditions: for Type of inhibition (Reversible/Irreversible): Table 1, printed with Ki; for Ki: literature values, Table 1

SMILES | Type of inhibition (Reversible/Irreversible) | Inhibition of steroid 5-α-reductase, in words (literature description) | Ki [µM]
C=C1C[C@@H]2[C@H](CC[C@@]3(C)[C@H]2CC[C@]3(OC(C)=O)C(C)=O)[C@@]2(C)CCC(=O)C=C12 [(5)] | Irreversible | timedependent inactivator of steroid 5-α-reductase | 1.25
CCN(CC)C(=O)[C@H]1CC[C@H]2[C@@H]3CC[C@H]4N(C)C(=O)CC[C@]4(C)[C@H]3CC[C@]12C [(4)] | Reversible | – | 0.005
